Data published in PubChem BioAssay AID210 (DTP/NCI, 2004).
Inconclusive results and toxic doses are left out.

System: CD2F1 mice, ip Colon 26 adenocarcinoma, median survival T/C
Assay: NCI In Vivo Anticancer Drug Screen. Data for tumor model Colon 26 Adenocarcinoma (intraperitoneal) in CD2F1 (CDF1) mice
Settings: endpoint: median survival time, higher = longer survival
Description: The antitumor activity of compounds was measured in mice bearing transplantable tumors. Survival or tumor size were measured and the results are expressed as the measurement made in the treated group (T) divided by the measurement made in the vehicle treated control group (C). The tumor model used in this assay is Colon 26 Adenocarcinoma (intraperitoneal) in CD2F1 (CDF1) mice

[1] = dose: 25.0 mg/kg/injection, schedule: Q04DX003 (ip), vehicle: saline
[2] = dose: 50.0 mg/kg/injection, schedule: Q04DX003 (ip), vehicle: saline
[3] = dose: 100.0 mg/kg/injection, schedule: Q04DX003 (ip), vehicle: saline

CC1(C(=O)O)C(O)CCC2(C)C1CCC1CC3CC12CCC3(O)CO (stereo unspecified)
T/C (dose: 2.5 mg/kg/injection, schedule: Q04DX002 (ip), vehicle: saline with Tween-80): 92 % of control
T/C (dose: 5.0 mg/kg/injection, schedule: Q04DX002 (ip), vehicle: saline with Tween-80): 98 % of control
T/C (dose: 10.0 mg/kg/injection, schedule: Q04DX002 (ip), vehicle: saline with Tween-80): 106 % of control
T/C (dose: 20.0 mg/kg/injection, schedule: Q04DX002 (ip), vehicle: saline with Tween-80): 95 % of control
T/C (dose: 40.0 mg/kg/injection, schedule: Q04DX002 (ip), vehicle: saline with Tween-80): 100 % of control
T/C (dose: 80.0 mg/kg/injection, schedule: Q04DX002 (ip), vehicle: saline with Tween-80): 101 % of control
T/C (dose: 100.0 mg/kg/injection, schedule: Q04DX002 (ip), vehicle: distilled water + Tween-80): 94 % of control
T/C (dose: 200.0 mg/kg/injection, schedule: Q04DX002 (ip), vehicle: distilled water + Tween-80): 97 % of control

COc1cc(C[C@H]2c3cc(OC)c(OC)cc3CCN2C)c(Oc2cc3c(cc2OC)-c2c(OC)c(OC)cc4c2[C@H](C3)N(C)CC4)cc1OC
T/C [1]: 89 % of control
T/C [2]: 95 % of control
T/C [3]: 90 % of control
T/C (dose: 200.0 mg/kg/injection, schedule: Q04DX003 (ip), vehicle: saline): 93 % of control
T/C (dose: 400.0 mg/kg/injection, schedule: Q04DX003 (ip), vehicle: saline): 95 % of control

N=C(N)Sc1ccccn1
T/C (dose: 12.5 mg/kg/injection, schedule: Q04DX003 (ip), vehicle: saline): 94 % of control
T/C [1]: 101 % of control
T/C [2]: 91 % of control
T/C [3]: 91 % of control

CCC1(O)CC2CN(CCc3c([nH]c4ccccc34)C(C(=O)OC)(c3cc4c(cc3OC)N(C)C3C(O)(C(N)=O)C(O)C5(CC)C=CCN6CCC43C65)C2)C1 (stereo unspecified) (tested in a mixture with another compound)
T/C (dose: 0.13 mg/kg/injection, schedule: Q04DX002 (ip), vehicle: water): 101 % of control
T/C (dose: 0.25 mg/kg/injection, schedule: Q04DX002 (ip), vehicle: water): 103 % of control
T/C (dose: 0.5 mg/kg/injection, schedule: Q04DX002 (ip), vehicle: water): 104 % of control
T/C (dose: 1.0 mg/kg/injection, schedule: Q04DX002 (ip), vehicle: water): 113 % of control
T/C (dose: 2.0 mg/kg/injection, schedule: Q04DX002 (ip), vehicle: water): 118 % of control

COc1cccc2c1C(=O)c1c(O)c3c(c(O)c1C2=O)C[C@@](O)(/C(C)=N\NC(=O)CO)C[C@@H]3OC1CC(N)C(O)C(C)O1 (stereo partly specified)
T/C (dose: 4.5 mg/kg/injection, schedule: Q07DX003 (iv), vehicle: other): 104 % of control
T/C (dose: 7.0 mg/kg/injection, schedule: Q07DX003 (iv), vehicle: other): 101 % of control
T/C (dose: 11.0 mg/kg/injection, schedule: Q07DX003 (iv), vehicle: other): 108 % of control
T/C (dose: 17.0 mg/kg/injection, schedule: Q07DX003 (iv), vehicle: other): 104 % of control

C=CCNc1ccc(C)cc1
T/C (dose: 12.5 mg/kg/injection, schedule: Q04DX003 (ip), vehicle: saline with Tween-80): 104 % of control
T/C (dose: 25.0 mg/kg/injection, schedule: Q04DX003 (ip), vehicle: saline with Tween-80): 104 % of control
T/C (dose: 50.0 mg/kg/injection, schedule: Q04DX003 (ip), vehicle: saline with Tween-80): 96 % of control
T/C (dose: 100.0 mg/kg/injection, schedule: Q04DX003 (ip), vehicle: saline with Tween-80): 97 % of control

O=NN(CCCl)C(=O)NCCCl
T/C (dose: 4.0 mg/kg/injection, schedule: Q04DX003 (ip), vehicle: saline + alcohol): 168 % of control
T/C (dose: 8.0 mg/kg/injection, schedule: Q04DX003 (ip), vehicle: saline + alcohol): 250 % of control
T/C (dose: 16.0 mg/kg/injection, schedule: Q04DX003 (ip), vehicle: saline + alcohol): 335 % of control
T/C (dose: 20.0 mg/kg/injection, schedule: Q04DX003 (oral), vehicle: saline + alcohol): 161 % of control
T/C (dose: 33.0 mg/kg/injection, schedule: Q04DX003 (oral), vehicle: saline + alcohol): 255 % of control
T/C (dose: 53.0 mg/kg/injection, schedule: Q04DX003 (oral), vehicle: saline + alcohol): 289 % of control
T/C (dose: 85.0 mg/kg/injection, schedule: Q04DX003 (oral), vehicle: saline + alcohol): 285 % of control

CC[C@H](CC[C@@H](C)[C@H]1CC[C@H]2[C@@H]3CC=C4C[C@@H](OC(C)=O)CC[C@]4(C)[C@H]3CC[C@]12C)C(C)C
T/C (dose: 25.0 mg/kg/injection, schedule: Q04DX002 (ip), vehicle: Klucel (hydroxypropylcellulose) (HPC)): 88 % of control
T/C (dose: 50.0 mg/kg/injection, schedule: Q04DX002 (ip), vehicle: Klucel (hydroxypropylcellulose) (HPC)): 92 % of control
T/C (dose: 100.0 mg/kg/injection, schedule: Q04DX002 (ip), vehicle: Klucel (hydroxypropylcellulose) (HPC)): 102 % of control
T/C (dose: 200.0 mg/kg/injection, schedule: Q04DX002 (ip), vehicle: Klucel (hydroxypropylcellulose) (HPC)): 90 % of control
T/C (dose: 400.0 mg/kg/injection, schedule: Q04DX002 (ip), vehicle: Klucel (hydroxypropylcellulose) (HPC)): 97 % of control

CS(=O)(=O)OCCCNCCCOS(C)(=O)=O
T/C (dose: 18.75 mg/kg/injection, schedule: Q04DX003 (ip), vehicle: saline): 194 % of control
T/C (dose: 37.5 mg/kg/injection, schedule: Q04DX003 (ip), vehicle: saline): 241 % of control
T/C (dose: 75.0 mg/kg/injection, schedule: Q04DX003 (ip), vehicle: saline): 338 % of control
T/C (dose: 150.0 mg/kg/injection, schedule: Q04DX003 (ip), vehicle: saline): 338 % of control

Cc1cc(=O)n2c3c(c4c(cc13)c(CN(C)C)cc(=O)n4C)OC2
T/C (dose: 6.25 mg/kg/injection, schedule: Q04DX002 (ip), vehicle: saline with Tween-80): 99 % of control
T/C (dose: 12.5 mg/kg/injection, schedule: Q04DX002 (ip), vehicle: saline with Tween-80): 99 % of control
T/C (dose: 25.0 mg/kg/injection, schedule: Q04DX002 (ip), vehicle: saline with Tween-80): 107 % of control
T/C (dose: 50.0 mg/kg/injection, schedule: Q04DX002 (ip), vehicle: saline with Tween-80): 102 % of control

COc1ccc(CC2C(=O)NC(C)C(=O)N(C)C3C(=O)N(C)C(Cc4ccc(O)c(c4)Oc4ccc(cc4)C3O)C(=O)NC(C)C(=O)NC(C)C(=O)N2C)cc1 (stereo unspecified)
T/C (dose: 0.5 mg/kg/injection, schedule: Q04DX003 (ip), vehicle: saline): 98 % of control
T/C (dose: 1.0 mg/kg/injection, schedule: Q04DX003 (ip), vehicle: saline): 101 % of control
T/C (dose: 1.08 mg/kg/injection, schedule: Q04DX003 (ip), vehicle: other): 91 % of control
T/C (dose: 1.8 mg/kg/injection, schedule: Q04DX003 (ip), vehicle: other): 113 % of control
T/C (dose: 2.0 mg/kg/injection, schedule: Q04DX003 (ip), vehicle: saline): 92 % of control
T/C (dose: 3.0 mg/kg/injection, schedule: Q04DX003 (ip), vehicle: other): 120 % of control
T/C (dose: 5.0 mg/kg/injection, schedule: Q04DX003 (ip), vehicle: other): 114 % of control

N=[N+]=CC(=O)OCC(N)C(=O)O (stereo unspecified)
T/C (dose: 3.12 mg/kg/injection, schedule: Q04DX003 (ip), vehicle: water): 113 % of control
T/C (dose: 6.25 mg/kg/injection, schedule: Q04DX003 (ip), vehicle: water): 113 % of control
T/C (dose: 12.5 mg/kg/injection, schedule: Q04DX003 (ip), vehicle: water): 105 % of control
T/C (dose: 25.0 mg/kg/injection, schedule: Q04DX003 (ip), vehicle: water): 111 % of control
T/C (dose: 50.0 mg/kg/injection, schedule: Q04DX003 (ip), vehicle: water): 95 % of control

C/C(=C\c1ccccc1)[N+](=O)[O-]
T/C (dose: 3.12 mg/kg/injection, schedule: Q04DX003 (ip), vehicle: Klucel (hydroxypropylcellulose) (HPC)): 91 % of control
T/C (dose: 6.25 mg/kg/injection, schedule: Q04DX003 (ip), vehicle: Klucel (hydroxypropylcellulose) (HPC)): 97 % of control
T/C (dose: 12.5 mg/kg/injection, schedule: Q04DX003 (ip), vehicle: Klucel (hydroxypropylcellulose) (HPC)): 96 % of control
T/C (dose: 25.0 mg/kg/injection, schedule: Q04DX003 (ip), vehicle: Klucel (hydroxypropylcellulose) (HPC)): 90 % of control

COc1cc2c3cc1Oc1c(O)c(OC)cc4c1[C@H](Cc1ccc(cc1)Oc1cc(ccc1O)C[C@H]3N(C)CC2)N(C)CC4
T/C (dose: 5.0 mg/kg/injection, schedule: Q04DX003 (ip), vehicle: distilled water + Tween-80): 95 % of control
T/C (dose: 10.0 mg/kg/injection, schedule: Q04DX003 (ip), vehicle: distilled water + Tween-80): 103 % of control
T/C (dose: 20.0 mg/kg/injection, schedule: Q04DX003 (ip), vehicle: distilled water + Tween-80): 97 % of control
T/C (dose: 40.0 mg/kg/injection, schedule: Q04DX003 (ip), vehicle: distilled water + Tween-80): 115 % of control
T/C (dose: 40.0 mg/kg/injection, schedule: Q04DX003 (ip), vehicle: saline with Tween-80): 95 % of control
